Test results published in patent US10195156B2, “Compounds and compositions for intracellular delivery of agents” (ModernaTX, Inc., priority 2015, dated 2019).

Key:
[1] = test system: GFP expression in liver cells; assay: Mouse liver immunohistochemistry (IHC) with GFP mRNA; format: in vivo; conditions: FIG. 11, i.v., 0.5 mpk, 6 h (MC3, CD-1) or 8 h (Compound 4, LDLR knockout)
Experimental: FIG. 11 is a pair of images comparing the results of a mouse liver immunohistochemistry (IHC) using mRNA expressing green fluorescent protein (GFP) after administration of nanoparticle compositions containing Compound 4 and MC3.
FIG. 16 is a graph showing GFP levels in the livers of LDLR knockout mice at 30 min to 24 h after intravenous administration of an eGFP RNA in a lipid composition containing Compound 4. The liver GFP levels were determined via IHC. The square markers represent the number of GFP positive cells following administration of a dose of 0.1 mpk of the composition. The circular markers represent the number of GFP positive cells following administration of a dose of 0.5 mpk of the composition.

[2] = test system: modified luciferase (Luc) expression; assay: Expression upon intramuscular administration of Luc mRNA and H10 mRNA formulations; format: in vivo; conditions: 6 hours after intramuscular administration
Experimental: Sample formulations including both modified luciferase (Luc) mRNA and H10 mRNA were prepared and administered intramuscularly at day 1 and day 21 and the resulting expression and immunogenicity were evaluated simultaneously. Formulations including compounds according to formula (20-I) were prepared and administered at doses of 0.001 and 0.01 mpk (e.g., doses of 0.0005 mpk of a formulation including Luc mRNA and a formulation including H10 mRNA or doses of 0.005 mpk of a formulation including Luc mRNA and a formulation including H10 mRNA). As shown in Table 20-4, the total flux was higher upon administration of the second dose for each composition and at each dose level. Total flux was higher for the higher dose level.

[3] = Lipid clearance: % dose remaining in mouse liver 6 h and 24 h after administration of nanoparticle compositions; format: in vivo, CD-1 mice
From the text: In contrast, hEPO expression in rats induced by administration of a nanoparticle composition including a compound according to one of formulae (I), (Ia1)-(Ia6), (Ib), (II), (IIa), (III), and (IIIa) was substantially […] than that measured for MC3. […] Table 7c and 7d show additional protein expressions and clearance data from compositions with various compounds disclosed herein as compared to with MC3.

CCCCCC=CCC=CCCCCCCCCC(CCCCCCCCC=CCC=CCCCCC)OC(=O)CCCN(C)C (stereo not shown) [MC3, heptatriaconta-6,9,28,31-tetraen-19-yl 4-(dimethylamino)butanoate, reference compound]
GFP protein expression in liver cell types (in words) [1]: observed in both hepatocytes and Kupffer cells | Total flux (p/s) 0.001 mpk Dose 1 ([2]; 0.001 mpk, Dose 1): 1.23E+06 p/s | Total flux (p/s) 0.001 mpk Dose 2 ([2]; 0.001 mpk, Dose 2): 1.09E+06 p/s | Total flux (p/s) 0.01 mpk Dose 1 ([2]; 0.01 mpk, Dose 1): 1.79E+07 p/s | Total flux (p/s) 0.01 mpk Dose 2 ([2]; 0.01 mpk, Dose 2): 3.13E+07 p/s | % Dose remaining 6 h CD-1 mice ([3]; 6 h, CD-1 mice): 88% | % Dose remaining 24 h CD-1 mice ([3]; 24 h, CD-1 mice): 55% | % Dose Remaining 6 hr ([3]; Table 7c, 6 hr): 55.70% | % Dose Remaining 24 hr ([3]; Table 7c, 24 hr): 55.43% | % dose remaining Mouse liver (24 h) ([3]; mouse liver, 24 h): 55%
